Assay results as given in article PMC11921344, “Antimicrobial peptide DiPGLa-H exhibits the most outstanding anti-infective activity among the PGLa variants based on a systematic comparison” (Applied and Environmental Microbiology, 2025).
Read-outs that look alike come from different tables or passages of the source. Where no end group is shown, it is not given here.

What was measured:
[1] = system: E. coli K88 outer membrane; test: Outer membrane integrity assay (NPN uptake); format: cell-based, Escherichia coli; details: 4 µM peptide; relative to 10 µg/mL polymyxin B = 100%
Experimental: (§1) The outer and inner membrane integrity of bacterial cells treated with peptides was assessed using NPN and PI staining, respectively. Full details are provided in the Supplementary Materials.
Membrane permeabilization. Outer membrane integrity assay. The fluorescent probe NPN (Sigma-Aldrich, catalog no. 104043, ≥98%) was used to assess the outer membrane integrity of DiPGLa-H or mucin-treated E. coli K88. Briefly, log-medium E. coli K88 cells (OD600 = 0.2) were incubated with NPN (10 μM) in 5 mM HEPES buffer (pH 7.4, containing 5 mM glucose) for 30 min, and background fluorescence was recorded for subtraction. (excitation λ = 350 nm, emission λ = 420 nm) using a microplate reader (Varioskan Flash; Thermo, America). Subsequently, 100 μL of cell suspension was mixed with an equal volume of peptide solutions ranging in concentration from 4 to 64 μM in a sterile 96-well black plate. Fluorescence was recorded over time until no further increase in fluorescence was detected. Each test was performed independently, in duplicate, with three biological replicates, and results were converted to percent NPN uptake using the equation. NPN uptake (%) = (Fobs – Fbuffer)/ (Fpositive – Fbuffer) ×100%.
where Fobs is the observed fluorescence at a given peptide concentration, Fbuffer is the fluorescence of the buffer, and Fpositive is the fluorescence of NPN with microbial cells upon addition of 10 μg/mL polymyxin B (Sigma), which was used as a positive control because of its strong outer membrane-permeabilizing property. Untreated cell suspension served as the negative control.

E. coli ATCC25922 = format: cell-based, Escherichia coli; details: for MBC E. coli ATCC25922: ATCC25922, 4 h; for MIC E. coli ATCC25922: ATCC25922, 24 h
Experimental: (§2) The antibacterial activity was evaluated using a standard MIC and MBC assay according to the National Committee for Clinical Laboratory Standards (NCCLS). MIC, MBC assay, and time-kill curves for the optimal peptide are provided in the Supplementary Materials.
Antimicrobial Activity Assays. The antibacterial activity of the peptides was determined using a method designed from the National Committee for Clinical Laboratory Standards (NCCLS) in the United States. All the strains used in the experiment are preserved in the laboratory. Briefly, log phase bacterial cells were diluted in MHB to a final concentration of 0.5-1x10^5 CFU/mL. Subsequently, 50μL of different concentrations of polypeptides were incubated with 50 μL of bacterial solution in sterile 96-well plates. In the minimum inhibitory concentration (MIC) assay, […], and the minimum inhibitory concentration (MIC) was determined by the absorbance at 492 nm of the microplate reader, and the minimum inhibitory concentration (MIC) inhibited 95% of bacteria grow. Determination of minimum bactericidal concentration: the plate was incubated at 37°C for 4 hours, 50 μL of the mixture was taken out of each well, diluted with an appropriate amount of PBS, smeared on the agar plate, and cultured overnight. Colonies were counted and the initial CFU/well was retrospectively calculated the following day. The lowest concentration of peptide that kills 99.9% of bacterial cells is the minimum bactericidal concentration (µM), Each test was replicated at least 3 times.

S. aureus Mu50 = format: cell-based, Staphylococcus aureus MRSA; details: for MBC S. aureus Mu50: Mu50, 4 h; for MIC S. aureus Mu50: Mu50, 24 h
Experimental: as §2
(§3) Antimicrobial Activity Assays. The antibacterial activity of the peptides was determined using a method designed from the National Committee for Clinical Laboratory Standards (NCCLS) in the United States. All the strains used in the experiment are preserved in the laboratory. Briefly, log phase bacterial cells were diluted in MHB to a final concentration of 0.5-1x10^5 CFU/mL. Subsequently, 50μL of different concentrations of polypeptides were incubated with 50 μL of bacterial solution in sterile 96-well plates. In the minimum inhibitory concentration (MIC) assay, the plate was incubated at 37°C for 24 h, and the minimum inhibitory concentration (MIC) was determined by the absorbance at 492 nm of the microplate reader, and the minimum inhibitory concentration (MIC) inhibited 95% of bacteria grow. Determination of minimum bactericidal concentration: the plate was incubated at 37°C for 4 hours, 50 μL of the mixture was taken out of each well, diluted with an appropriate amount of PBS, smeared on the agar plate, and cultured overnight. Colonies were counted and the initial CFU/well was retrospectively calculated the following day. The lowest concentration of peptide that kills 99.9% of bacterial cells is the minimum bactericidal concentration (µM), Each test was replicated at least 3 times.

[2] = system: E. coli K88 inner membrane; test: Inner membrane integrity assay (PI); format: cell-based, Escherichia coli; details: 4 µM, 16 µM and 64 µM peptide
Experimental: as §1
Inner membrane integrity assay. E. coli K88 cells were washed and resuspended in 0.01 mol l−1 of PBS (pH 7.4) to obtain an OD600 of 0.5, followed by the addition of 10 nmol l−1 of PI (Thermo Fisher Scientific, catalogue no. P1304MP) in the presence of […]. After incubation for 30 min, fluorescence was measured with the excitation wavelength at 535 nm and emission wavelength at 615 nm.

all tested bacteria = test: Geometric mean MIC and therapeutic index, all strains; format: cell-based; details: for GMMIC All: geometric mean of the peptide MICs against all strains; for reduced antibacterial efficacy compared with DiPGLa-H: from MICs of Table 2
Experimental: as §2, §3

P. aeruginosa ATCC27853 = format: cell-based, Pseudomonas aeruginosa; details: for MBC P. aeruginosa ATCC27853: ATCC27853, 4 h; for MIC P. aeruginosa ATCC27853: ATCC27853, 24 h
Experimental: as §2, §3

E. coli ATCC 25922 = details: cited from earlier work
Experimental: (§4) PGLa, an amphibian 21-residue cationic AMP, with a net charge of +4, was found in the skin of the toad Xenopus laevis ([6]). The minimum inhibitory concentration (MIC) of PGLa against Escherichia coli 25922 and S. aureus 25923 were 10–50 μg/mL and 50–100 μg/mL, respectively ([6]). […] The rep ...

S. aureus ATCC 25923 = details: cited from earlier work
Experimental: as §4

S. aureus ATCC29213 = format: cell-based, Staphylococcus aureus; details: for MBC S. aureus ATCC29213: ATCC29213, 4 h; for MIC S. aureus ATCC29213: ATCC29213, 24 h
Experimental: as §2, §3

Gram-negative bacteria = test: Geometric mean MIC and therapeutic index, Gram-negative; format: cell-based; details: geometric mean of the peptide MICs against Gram-negative strains
Experimental: as §2, §3

Gram-positive bacteria = test: Geometric mean MIC and therapeutic index, Gram-positive; format: cell-based; details: geometric mean of the peptide MICs against Gram-positive strains
Experimental: as §2, §3

A. baumannii ATCC19606 = format: cell-based, Acinetobacter baumannii; details: for MBC A. baumannii ATCC19606: ATCC19606, 4 h; for MIC A. baumannii ATCC19606: ATCC19606, 24 h
Experimental: as §2, §3

E. coli = details: cited from earlier work
Experimental: as §4

S. aureus = details: cited from earlier work
Experimental: as §4

[3] = system: Acinetobacter nosocomial Ab113; details: cited from earlier work
Excerpt: (§5) To date, there is a lack of systematic comparative study on the bacteriostatic activity and biosafety of PGLa and its variants, which precludes the determination of the variant with the highest potential for application. It has been more than 30 years since the discovery of PGLa in 1983 to the recent discovery of new PGLa-derived peptides.

Helicobacter pylori = details: cited from earlier work
Excerpt: as §5

E. coli K88 = format: cell-based, Escherichia coli
Experimental: as §2
as §3, with “The lowest concentration of peptide that kills 99.9% of bacterial cells is the minimum bactericidal concentration (µM), Each test was replicated at least 3 times.” left out

MRSA = details: cited from earlier work
Excerpt: as §5

Pseudomonas aeruginosa = details: cited from earlier work
Excerpt: as §5

[4] = first of two independent studies
[5] = second of two independent studies

Row | Substance | MBC E. coli ATCC25922 (E. coli ATCC25922) | MIC E. coli ATCC25922 (E. coli ATCC25922) | MBC S. aureus Mu50 (S. aureus Mu50) | MIC S. aureus Mu50 (S. aureus Mu50) | GMMIC All (all tested bacteria) | MBC P. aeruginosa ATCC27853 (P. aeruginosa ATCC27853) | MIC P. aeruginosa ATCC27853 (P. aeruginosa ATCC27853) | MBC S. aureus ATCC29213 (S. aureus ATCC29213) | MIC S. aureus ATCC29213 (S. aureus ATCC29213) | GMMIC Gram-negative (Gram-negative bacteria) | GMMIC Gram-positive (Gram-positive bacteria) | MBC A. baumannii ATCC19606 (A. baumannii ATCC19606) | MIC A. baumannii ATCC19606 (A. baumannii ATCC19606) | reduced antibacterial efficacy compared with DiPGLa-H (all tested bacteria) | other results
1 | KIAKVALKAL-NH2 (C-terminus assumed) [PGLa-H] | > 128 µM | > 128 µM | >128 (>128) µM | >128 (>128) µM | 128 µM | > 128 µM | > 128 µM | > 128 µM | > 128 µM | 128 µM | 128 µM | > 128 µM | > 128 µM | – | outer membrane permeability (NPN uptake) [1]: failed to exhibit any discernible outer membrane permeability; PI-DNA fluorescence intensity [2]: relatively constant PI-DNA fluorescence intensity; MIC E. coli ATCC25922 (E. coli ATCC 25922): 23.6 µg/mL; MIC S. aureus ATCC 25923 (S. aureus ATCC 25923): 8.7 µg/mL
2 | GMASKAGSVLGKVAKVALKAAL-NH2 (C-terminus assumed) [PGLa-AM1] | > 64 µM | > 64 µM | >64 (>64) µM | >64 (>64) µM | 57.02 µM | > 64 µM | 64 µM | > 64 µM | > 64 µM | 53.82 µM | 64 µM | 32 µM | 32 µM | – | MIC E. coli (E. coli): 12.5 µM; MIC S. aureus (S. aureus): 25 µM; MIC Acinetobacter nosocomial Ab113 [3]: 128 µg/mL; MIC Helicobacter pylori (Helicobacter pylori): 1 µg/mL
3 | GMASKAGAIAGKIAKVALKAL-NH2 (C-terminus assumed) [PGLa] | > 64 µM | > 64 µM | >64 (>64) µM | >64 (>64) µM | 45.25 µM | 64 µM | 64 µM | 64 µM | 64 µM | 38.05 µM | 64 µM | 16 µM | 16 µM | – | MIC E. coli 25922 (E. coli ATCC 25922): 10 to 50 µg/mL; MIC S. aureus 25923 (S. aureus ATCC 25923): 50 to 100 µg/mL; MIC E. coli K88 (E. coli K88; lowest concentration inhibiting 95% of growth, MHB, 0.5-1x10^5 CFU/mL, 37°C 24 h, absorbance 492 nm, three independent experiments): 32 µM; MBC E. coli K88 (E. coli K88; lowest concentration killing >99.9% of cells, 37°C 4 h, plating, colony count, three independent trials): 64 µM
4 | KIAKVALKALKIAKGALKAL-NH2 (C-terminus assumed) [kiadin-1] | 64 µM | 32 µM | 32 (32) µM | 32 (32) µM | 14.25 µM | 16 µM | 8 µM | 16 µM | 16 µM | 11.31 µM | 22.63 µM | 4 µM | 4 µM | 2–8 times | MIC MRSA (MRSA; [4]): 3 µM; MIC MRSA (MRSA; [5]): 16 µg/mL; MIC Pseudomonas aeruginosa ATCC 25922 (Pseudomonas aeruginosa; [4]): 6 µM; MIC Pseudomonas aeruginosa ATCC 25922 (Pseudomonas aeruginosa; [5]): > 32 µg/mL
5 | KIAKGALKALKIAKVALKAL-NH2 (C-terminus assumed) [kiadin-2] | 16 µM | 8 µM | 32 (32) µM | 32 (32) µM | 8.98 µM | 8 µM | 4 µM | 32 µM | 32 µM | 4.76 µM | 32 µM | 4 µM | 4 µM | 2–8 times | –
